Columns and labels:
[1] = test system: patients with Idiopathic Pulmonary Fibrosis (IPF); experiment: IPF trial Part B (open label long-term extension): efficacy, safety, TEAEs; type: in vivo, human
Excerpt: Part B (long-term extension) will evaluate the tolerability and long-term safety of LYT-100 in patients who complete the Double-blind Treatment Period. Part B has two periods. […] Patients completing Part B Period 1 will continue maintenance treatment in Part B Period 2 until the study ends. Part B Period 2 will continue at least until all patients who enter Part B Period 1 have the opportunity to complete Part B Period 1. Tolerability and safety during both Part B Period 1 and Part B Period 2 will be monitored by regularly scheduled review of adverse events (AEs), patient reported symptoms, concomitant medications, clinical laboratory findings, physical examinations, electrocardiograms (ECGs), and vital signs. Efficacy will be assessed by evaluation of pulmonary function and monitored by spirometry at regularly scheduled clinic visits. A graphical illustration of an embodiment of the trial design is provided as FIG. 24C.
At the start of Part B, all patients received LYT-100 oral tablets. Patients were titrated onto their assigned doses.
The proportion of patients with prior exposure to nintedanib was limited to 50%.
One hundred and seventy (170) patients (greater than 90%) enrolled in the Open Label Extension (Part B) of the study.

[2] = test system: patients with Idiopathic Pulmonary Fibrosis (IPF); experiment: IPF trial Part A (26-week double-blind): efficacy, FVC and FVCpp, time to progression; type: in vivo, human; conditions: for FVC, Bayesian Posterior Mean Difference vs. Placebo / FVC, Frequentist Adjusted Mean Difference vs. Placebo / FVCpp, Bayesian Posterior Mean comparison vs. Placebo / FVCpp, Frequentist Adjusted Mean comparison vs. Placebo / Treatment effect, FVC, versus placebo / Treatment effect, FVCpp, versus placebo: 26 weeks
Protocol: The primary objective was to determine the dose(s) to carry into Phase 3. […] Patients were randomized to one of the four treatments in a 1:1:1:1 ratio and stratified based on prior exposure to nintedanib (<6 months) versus nintedanib-naïve patients. Patients who completed the Double-blind Treatment Period (Part A) were offered participation in the Long-term Extension (Part B). […] For patients who participated in Part B, the follow-up was conducted at the end of Part B. A graphical illustration of an embodiment of the trial design is provided as FIG. 24B.
Doses were adjusted according to safety and tolerability to avoid toxicity.
Note that, for all treatment groups, the first 7 days of treatment, one capsule was taken TID., Day 8 through Day 14, two capsules TID., and Day 15 forward, 3 capsules TID.
Weekly home FVC was assessed with an individual spirometer, which was supplied to each patient. The site used its own equipment for in-clinic FVC assessments. Spirometry measurements were performed according to the American Thoracic Society/European Respiratory Society (“An Official American Thoracic Society and European Respiratory Society Technical Statement Technical Statement” Am J Respir Crit Care Med. 2019; 200(8):e71-e83) and the study specific Pulmonary Function Manual, at timepoints specified in the Schedule of Assessments. Spirometry was conducted while the patient was in a seated position. The test was done in order to achieve three acceptable FVC measurements (three curves to be provided), and the best result selected according to the guidelines. The best of three efforts was defined as the highest FVC, obtained on any of the three blows meeting the ATS/ERS/JRS/ALAT 2019 criteria (Graham et al, 2019) with preferably a maximum of eight attempts.
Pulmonary function was measured in a standardized manner and results transmitted electronically during the visit immediately after performing the spirometry and evaluated by a central reader. In case the acceptability and repeatability criteria as specified by ATS/ERS/JRS/ALAT guidelines were not met, a repeat spirometry was performed during the same visit.
The primary efficacy endpoint was the rate of decline in FVC mL over 26 weeks. In addition, decline in FVC % predicted from baseline to Week 26 and by >10% and >5% was assessed.
The secondary endpoint was comparison of FVC % predicted change from baseline to Week 26.
The following parameters were measured or calculated as part of the spirometry assessment: • FVC (mL) and FVC % predicted (FVCpp) • FEV1 (mL) and percent predicted forced expiratory volume in 1 second (FEV1% p) • FEV1/FVC ratio • Forced expiratory flow between 25% and 75% of exhaled volume (FEF25-75) The ‘2012 Global Lung Function Initiative Equations’ was used to calculate the predicted values (Quanjer et al, “Multi-ethnic reference values for spirometry for the 3-95 year age range: the global lung function 2012 equations: Report of the Global Lung Function Initiative (GLI), ERS Task Force to establish improved Lung Function Reference Values.,” Eur Respir J, vol. 40(6), pp. 1324-1343, 2012). […]

[3] = Part A LYT-100 → Part B LYT-100 (N = 81)
[4] = Part A Pirfenidone → Part B LYT-100 (N = 39)
[5] = Part A Placebo → Part B LYT-100 (N = 50)
[6] = deupirfenidone 550 mg TID, N=65
[7] = deupirfenidone 825 mg TID, N=63
[8] = deupirfenidone 825 mg TID, N=63, listed as Deupirfenidone
[9] = deupirfenidone 825 mg TID, N=63, listed as deupirfenidone

## [2H]C([2H])([2H])c1ccc(=O)n(-c2ccccc2)c1 [LYT-100, 5-(methyl-d3)-1-phenylpyridin-2-(1H)-one]
[1]; IPF Part B, ongoing, LYT-100 825 mg TID (FIG. 49)
  response in Open Label Extension: durable response
[1]; [3]
  TEAE Abdominal Pain: 2 (2.5) n (%)
  TEAE Diarrhea: 2 (2.5) n (%)
  TEAE Dyspepsia: 7 (8.6) n (%)
  TEAE Nausea: 5 (6.2) n (%)
  TEAE SOC Gastrointestinal disorders: 17 (21.0) n (%)
  TEAE Vomiting: 2 (2.5) n (%)
[1]; [4]
  TEAE Abdominal Pain: 1 (2.6) n (%)
  TEAE Diarrhea: 1 (2.6) n (%)
  TEAE Dyspepsia: 0 n (%)
  TEAE Nausea: 2 (5.1) n (%)
  TEAE SOC Gastrointestinal disorders: 5 (12.8) n (%)
  TEAE Vomiting: 0 n (%)
[1]; [5]
  TEAE Abdominal Pain: 2 (4.0) n (%)
  TEAE Diarrhea: 2 (4.0) n (%)
  TEAE Dyspepsia: 7 (14.0) n (%)
  TEAE Nausea: 7 (14.0) n (%)
  TEAE SOC Gastrointestinal disorders: 18 (36.0) n (%)
  TEAE Vomiting: 3 (6.0) n (%)
[1]; Part B Subtotal (N = 170)
  TEAE Abdominal Pain: 5 (2.9) n (%)
  TEAE Diarrhea: 5 (2.9) n (%)
  TEAE Dyspepsia: 14 (8.2) n (%)
  TEAE Nausea: 14 (8.2) n (%)
  TEAE SOC Gastrointestinal disorders: 40 (23.5) n (%)
  TEAE Vomiting: 5 (2.9) n (%)
[2]; deupirfenidone 550 mg TID
  FVC, Bayesian Posterior Mean Difference vs. Placebo: 34.1 mL
  FVC, Frequentist Adjusted Mean Difference vs. Placebo: 31.8 mL
  FVCpp, Bayesian Posterior Mean comparison vs. Placebo: 1.47
  FVCpp, Frequentist Adjusted Mean comparison vs. Placebo: 1.62
  Treatment effect, FVC, versus placebo: 28.3%
  Treatment effect, FVCpp, versus placebo: 47.2%
  Cohen's D, FVC: 0.14
  Cohen's D, FVCpp: 0.23
[2]; deupirfenidone 825 mg TID
  FVC, Bayesian Posterior Mean Difference vs. Placebo: 90.9 mL
  FVC, Frequentist Adjusted Mean Difference vs. Placebo: 91.0 mL
  FVCpp, Bayesian Posterior Mean comparison vs. Placebo: 2.85
  FVCpp, Frequentist Adjusted Mean comparison vs. Placebo: 3.00
  Treatment effect, FVC, versus placebo: 80.9%
  Treatment effect, FVCpp, versus placebo: 87.5%
  Cohen's D, FVC: 0.40
  Cohen's D, FVCpp: 0.44
[2]; deupirfenidone 825 mg TID, listed as Deupirfenidone
  Treatment effect, FVC, versus placebo: 80.9%
[2]; deupirfenidone 825 mg TID, listed as deupirfenidone
  Treatment effect, FVC, versus placebo: 80.9%
[2]; LYT-100 825 mg TID (FIG. 45)
  6-month FVC decline compared with healthy older adults: in line with that seen for healthy adults >60 years
[2]; [6]
  Change from Baseline in FVC over 26 Weeks, Bayesian Posterior Mean (SE): −76.7 (28.60) mL
  Change from Baseline in FVC over 26 Weeks, Frequentist Adjusted Mean (SE): −80.7 (29.32) mL
  Change from Baseline in FVCpp over 26 Weeks, Bayesian Posterior Mean (SE): −1.80 (0.88)
  Change from Baseline in FVCpp over 26 Weeks, Frequentist Adjusted Mean (SE): −1.81 (0.886)
[2]; [7]
  Change from Baseline in FVC over 26 Weeks, Bayesian Posterior Mean (SE): −19.9 (28.29) mL
  Change from Baseline in FVCpp over 26 Weeks, Bayesian Posterior Mean (SE): −0.42 (0.88)
[2]; [8]
  Change from Baseline in FVC over 26 Weeks, Frequentist Adjusted Mean (SE): −21.5 (28.86) mL
  Change from Baseline in FVCpp over 26 Weeks, Frequentist Adjusted Mean (SE): −0.43 (0.872)
[2]; [9]
  Change from Baseline in FVC over 26 Weeks, Frequentist Adjusted Mean (SE): -21.5 mL
  Change from Baseline in FVCpp over 26 Weeks, Frequentist Adjusted Mean (SE): −0.43
